Assay results as given in article PMC10609273, “Radiosynthesis and Early Evaluation of a Positron Emission Tomography Imaging Probe [^18F]AGAL Targeting Alpha-Galactosidase A Enzyme for Fabry Disease” (Molecules, 2023).

Assays:
[1] = LogD determination, miniaturized shake flask method; format: physicochemical; conditions: octanol/buffer (1:1); octanol/buffer pH 7.4 (1:1), 66.6 μM
Procedure: The distribution of AGAL between an organic solvent (octanol) and aqueous buffer (pH 7.4) was tested using the miniaturized shake flask method in octanol/buffer (1:1). This was accomplished by spiking the test compound (prepared in DMSO) into pre-equilibrated octanol/buffer phases at a concentration of 66.6 μM followed by shaking at 880 rpm for 1 h. The concentration of the test compound in both phases was analyzed using LC–MS/MS.

[2] = In vitro liver microsomal metabolism study, human; format: in vitro ADME; conditions: human liver microsomes
Procedure: (§1) Metabolic stability was assessed by incubating compounds in the presence of human, rat, and mouse liver microsomal fractions (Xenotech, Kansas City, KS, USA). All chemicals and reagents, including control compounds, were purchased from commercial sources such as Sigma-Aldrich (St. Louis, MO, USA) or Toronto Research Chemicals (North York, ON, Canada). Liver microsomal incubations were conducted with 100 mM phosphate buffer, 0.5 mg/mL of liver microsomal protein, 2 mM NADPH, 2.5 mM UDPGA, 3 mM MgCl2, alamethicin, and 1 μM test article for a total incubation volume of 80 µL. All reagents except the liver microsomes were mixed together and aliquoted (60 μL) into 96-well plates. The reaction was initiated by adding the microsomes (20 μL). At 0, 3, 7, 12, 20, and 30 min time points, the reactions were terminated with the addition of acetonitrile-containing carbutamide (as an internal standard). The terminated samples were then centrifuged at 2 °C to pellet the protein and the supernatant was injected onto an LC–MS. The test article was monitored for loss over time and the t1/2 was determined. The calculated t1/2 was then used as described below to determine the Eh (hepatic extraction ratio) for both human and rat.
(§2) The intrinsic clearance (CLint), hepatic clearance (CLh), and hepatic extraction ratio (Eh) were calculated using the equations below. CLint = (0.693/t1/2 in vitro) × (mL incubation volume/mg microsomal protein) × (X mg of microsomal protein/gram of liver) × (Y g of liver/kg of body weight)(1) CLh = Q × CLint/Q + CLint(2) Eh = CLh/Q(3) where: • CLint = intrinsic clearance (calculated from microsomal incubations) • X = 40 for human, 41.5 for rat and 45 for mouse • Y = 21.4 for human, 40 for rat and 50 for mouse • t1/2 = half-life • CLh = hepatic clearance • Q = liver blood flow rate = 1.24 L/h/kg for human, 4.8 L/h/kg for rat, and 5.4 L/h/kg for mouse • Eh = hepatic extraction ratio • CLh = hepatic clearance

[3] = In vitro liver microsomal metabolism study, mouse; format: in vitro ADME; conditions: mouse liver microsomes
Procedure: as §1, §2

[4] = Plasma stability study, human; format: in vitro ADME
Procedure: (§3) Briefly, plasma stability was assessed by incubating compounds in the presence of human (pooled) and mouse (pooled) plasma (Bioreclamation, Westbury, NY, USA). All chemicals and reagents including control compounds were purchased from commercial sources such as Sigma-Aldrich or Toronto Research Chemicals. Plasma incubations were conducted by placing plasma (95 μL) in a 96-well microtiter plate and warming to 37 °C for 5 min. The reaction was initiated with the addition of the test article (5 μL of 20 μM), totaling 100 μL in incubation volume. At 0, 15, 30, 60, and 120 min time points, the reactions were terminated with the addition of acetonitrile-containing carbutamide (as an internal standard). The terminated samples were then centrifuged at 2 °C to pellet the protein, and the supernatant was injected onto an LC–MS. The test article was monitored for loss over time and the t1/2 was determined.

[5] = Plasma stability study, mouse; format: in vitro ADME
Procedure: as §3

CYP2C19 = molecular target: T1, CYP2C19 (Homo sapiens, UniProt P33261); assay: Reversible CYP inhibition in pooled HLMs; format: in vitro ADME; conditions: 30 µM compound, substrate S-mephenytoin
T1 construct: from tissue; host or cells: pooled human liver microsomes (n = 200)
Procedure: (§4) All chemicals and reagents including control compounds were purchased from commercial sources such as Sigma-Aldrich or Toronto Research Chemicals. The test article was tested for reversible inhibition of CYPs in human liver microsomes (HLM) (0.2 mg/mL protein) at a concentration range of 0–30 μM. Each condition was incubated in duplicate. The test article (0–30 μM), NADPH, and the CYP-selective probe substrate were incubated in a 96-well plate at 37 °C in 0.1 M potassium phosphate buffer, pH 7.4. The reactions were initiated by adding the HLMs. The total reaction volume was 100 μL.
(§5) After the incubation period (10 min for CYP1A2, 2B6, and 2C9; 15 min for CYP2C19; and 4 min for CYP2C8 and 2D6 to accommodate linear kinetic conditions) at 37 °C, the reactions were terminated by the addition of 100 μL of ice-cold acetonitrile-containing carbutamide as an IS, then centrifuged at 2500× g for 10 min at 2 °C. A 150 μL aliquot of supernatant for each CYP assay, except for CYP1A2, was then transferred to a new plate for analysis. For CYP1A2, 80 μL of supernatant was transferred to the plate and further diluted with 80 μL of water before analysis. All samples were analyzed with liquid chromatography with tandem mass spectrometry (LC–MS/MS).

CYP2C8 = molecular target: T2, CYP2C8 (Homo sapiens, UniProt P10632); assay: Reversible CYP inhibition in pooled HLMs; format: in vitro ADME; conditions: 30 µM compound, substrate amodiaquine
T2 construct: from tissue; host or cells: pooled human liver microsomes (n = 200)
T2 sequence (P10632 1-490): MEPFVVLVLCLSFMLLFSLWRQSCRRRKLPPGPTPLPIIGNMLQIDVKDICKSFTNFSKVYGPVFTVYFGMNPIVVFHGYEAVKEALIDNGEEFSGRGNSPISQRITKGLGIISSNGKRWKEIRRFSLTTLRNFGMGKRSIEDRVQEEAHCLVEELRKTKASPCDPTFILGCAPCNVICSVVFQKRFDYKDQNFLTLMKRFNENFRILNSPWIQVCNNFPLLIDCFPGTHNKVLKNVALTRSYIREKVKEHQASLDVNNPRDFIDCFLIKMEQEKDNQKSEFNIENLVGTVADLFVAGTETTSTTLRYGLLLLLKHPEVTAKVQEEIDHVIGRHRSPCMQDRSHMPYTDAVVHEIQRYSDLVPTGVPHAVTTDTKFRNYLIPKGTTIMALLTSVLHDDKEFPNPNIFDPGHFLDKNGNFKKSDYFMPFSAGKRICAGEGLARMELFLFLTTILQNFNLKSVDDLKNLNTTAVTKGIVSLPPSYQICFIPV
Procedure: as §4, §5

T1 sequence (P33261 whole entry): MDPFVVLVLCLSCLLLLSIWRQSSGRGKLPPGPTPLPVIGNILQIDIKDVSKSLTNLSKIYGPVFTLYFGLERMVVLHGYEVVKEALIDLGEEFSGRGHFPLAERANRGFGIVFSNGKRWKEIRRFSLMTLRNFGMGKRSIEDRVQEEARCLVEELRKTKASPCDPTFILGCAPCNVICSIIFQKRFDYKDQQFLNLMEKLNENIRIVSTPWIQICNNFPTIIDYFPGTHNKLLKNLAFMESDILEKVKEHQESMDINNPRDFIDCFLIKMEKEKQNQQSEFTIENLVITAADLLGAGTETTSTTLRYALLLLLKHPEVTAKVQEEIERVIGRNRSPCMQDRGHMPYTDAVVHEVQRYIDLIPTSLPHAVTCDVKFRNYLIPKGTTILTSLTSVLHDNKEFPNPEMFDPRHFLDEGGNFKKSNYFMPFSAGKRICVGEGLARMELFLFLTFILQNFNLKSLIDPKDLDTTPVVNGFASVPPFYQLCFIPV

O=C(CCCCCCCn1cc(CCCF)nn1)N1[C@@H]2[C@H](O)[C@@H](O)[C@@H](O)[C@@H](CO)[C@@H]21 [AGAL]
logD at 1 h [1]: -0.43
CLh [2]: <4.68 mL/min/kg
Eh (hepatic extraction ratio) [2]: <0.226
microsomal stability, clearance in words [2]: minimally cleared
CLint scaled at 1 µM ([2]; 1 μM, NADPH + UDPGA): < 6.05 mL/min/kg
CLh [3]: 68.8 mL/min/kg
Eh (hepatic extraction ratio) [3]: 0.766
microsomal stability, clearance in words [3]: highly cleared
CLint scaled at 1 µM ([3]; 1 μM, NADPH + UDPGA): 293 mL/min/kg
parent remaining ([4]; 30 min post-incubation): 93%
half-life at 1 µM ([4]; pooled plasma, 37 °C, read-out: Plasma Half-Life, t1/2): 3.47 h
Plasma Half-Life, t1/2 ([5]; 37 °C): 9.83 min
parent remaining ([5]; 30 min post-incubation): 18%
half-life at 1 µM ([5]; mouse, pooled plasma, 37 °C, read-out: Plasma Half-Life, t1/2): < 0.167 h
reversible inhibition of CYP2C19 activity (CYP2C19): no significant loss of CYP activity
reversible inhibition of CYP2C8 activity (CYP2C8): no significant loss of CYP activity
